Assays:
[1] = test system: Gpr55 mRNA in RAW264.7 cells; assay: Modulation of Gpr55 mRNA levels by receptor ligands in RANKL-treated RAW264.7 cells; format: cell-based, murine; conditions: 72 h; 0.5 μM ML-191, 0.5 μM CBD, 1 μM soybean LPI; versus RANKL alone
Protocol: Total RNA was extracted using RNeasy isolation kits, cDNAs were obtained using QuantiTect Reverse Transcription kits, and real-time PCRs were performed with QuantiTect SYBR Green PCR kits (all from Qiagen, Hilden, Germany), according to the manufacturer instructions. The primers used for the real-time PCRs and their annealing temperatures are listed in the Additional file 1: Table S1. Human hypoxanthine phosphoribosyltransferase 1 (HPRT1) or murine β2-microglobulin were followed as housekeeping genes. The real-time PCR programme consisted of an initial 15 min at 95 °C, and then 45 cycles as follows: 94 °C for 15 s, annealing temperature of each primer for 30 s, and 72 °C for 30 s. The real-time PCR machine used was a LightCycler 480 Instrument II (Roche, Indianapolis, IN, USA).
For the osteoclastogenesis in-vitro assay, RAW264.7 cells were plated in differentiation medium (α-MEM with 10% heat-inactivated FBS, 2 mM L-glutamine, 100 U/mL penicillin, and 100 ug/mL streptomycin) at a density of 5 × 10^3 cells/well in 24-well plates on coverslips for morphological analysis, or at 2 × 10^4 cells/well in six-well plates for RNA extraction. Twenty-four hours later and every 48 h, the medium was replaced and the cells were treated with 15–30 ng/mL RANKL with DMSO and/or PBS as carriers, or with GPR55 antagonists/ agonists (0.5 µM ML-191, 30 µM O1918, 0.5 µM CBD, 0.5 μM CID16020046 1 µM soybean LPI, 1 μM ML-184), or with the peptides (150 nM peptide-P1; or the irrelevant peptide, Irr_P). Twenty-four hours after the last addition, the cells were fixed with 4% paraformaldehyde for morphological analyses or harvested for RNA extraction (see above).

ssGPR55-Q87A = assay: GPR55-internalisation assay, Q87A mutant (FACS); format: cell-based, human; conditions: HeLa, 10 µM soybean LPI, 15 min, three independent experiments
From the text: (§1) The construct of haemagglutinin (HA)-tagged human GPR55 in pcDNA3 (HA-GPR55) was a gift from Prof. K. Mackie, Indiana University, Bloomington, IN, USA [39], while the construct ss-3 × HA-GPR55 in pcDNA3.1 (ssGPR55) with a triple HA tag at the N-terminus and an optimised signal sequence (ss, derived from amino acids 1–33 of the human growth hormone: […]) for efficient surface expression was from Prof. A. Irving, Dundee University, UK [40]. For both constructs, mutations were introduced by site-directed mutagenesis using QuickChange kits (Stratagene, La Jolla, CA, USA), according to the manufacturer instructions. The primers for the K80A mutation were 5′-[…]-3′ and 5′-[…]-3′ (Tm, 70.6 °C), and for Q87A were 5′-[…]-3′ and 5′-[…]-3′ (Tm, 73.1 °C).
(§2) HeLa cells were plated at 1.5 × 10^5 cells/well in six-well plates in their growth medium without antibiotics. […]
(§3) For the GPR55-internalisation assay, after stimulation, the HeLa cells were washed twice with cold HBSS^++, stained while adhered with the monoclonal anti-HA antibody (1:1000) in PBS plus 3% BSA for 1 h on ice, washed three times with cold PBS, incubated with the Alexa488-tagged anti-mouse antibody (1:800) in PBS plus 3% BSA for 45 min on ice. […] The collected cells were centrifuged at 300×g, suspended in PBS plus 3% BSA, and analysed by FACS.

ssGPR55 wild-type = assay: GPR55-internalisation assay, wild-type (FACS); format: cell-based, human; conditions: 10 µM soybean LPI
Protocol: HeLa cells were plated at 1.5 × 10^5 cells/well in six-well plates in their growth medium without antibiotics. Twenty-four hours later, the cells were transfected with 2.5 µg/well pcDNA3.1, or the mutants ssGPR55-K80A, ssGPR55-Q87A, or 1.25 µg/well (complemented with 1.25 µg/well empty vector) ssGPR55, using Lipofectamine 2000, according to the manufacturer instructions. The different cDNA amounts were necessary to reach equivalent plasma-membrane expression of the receptors, as the mutants were expressed at lower levels, as verified by FACS analyses, and in line with previous reports. […]
as §3

ssGPR55-K80A = assay: GPR55-internalisation assay, K80A mutant (FACS); format: cell-based, human; conditions: ssGPR55-K80A, HeLa; 10 µM soybean LPI, 15 min; three independent experiments
From the text: as §1, §2, §3

Question: Which results are given for lysophosphatidylinositol [LPI]?
Answer: further enhancement of RANKL-stimulated Gpr55 mRNA levels [1]: 0.5 -fold; reduction of cell-surface level of receptor (ssGPR55-Q87A): 15%; time to plateau of LPI-induced internalisation (ssGPR55 wild-type; overexpressed ssGPR55 in HeLa cells): 10 min; reduction of cell-surface level of receptor (ssGPR55 wild-type; ssGPR55 wild-type, HeLa, 15 min, three independent experiments): 30%; change of cell-surface level of receptor (ssGPR55-K80A): not changed

— article PMC8073907, “Peptide targeting of lysophosphatidylinositol-sensing GPR55 for osteoclastogenesis tuning” (Cell Communication and Signaling : CCS, 2021)
